Assay [1] deals with experimentally-induced ocular inflammation. As to the kind of experiment: Vascular permeability in experimentally-induced ocular inflammation. The format is in vivo. The note with it: earlier experiments of the applicant's laboratory.
A further assay deals with IL-1-induced uveitis. Kind of assay: IL-1-induced uveitis in rat eyes. The class given is in vivo. The note with it: earlier experiments of the applicant's laboratory.

For `COc1ccc2ccc(=O)oc2c1CC=C(C)C` [Osthole], the vascular permeability entry in assay [1] is reported as “showed efficacy to reduce vascular permeability”. In addition, the IL-1-induced uveitis result in the assay with IL-1-induced uveitis was “inhibit IL-1-induced uveitis”.

The values above are taken from US11045435B2, “Methods for treating ocular diseases” (NATUREWISE BIOTECH & MEDICALS CORPORATION, priority 2016, dated 2021).
